Measured values: ChEMBL document CHEMBL1201862, “PubChem BioAssay data set” (2004)
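48-hour exposure; five concentrations; linearly interpolated endpoints. GI50: concentration for 50% inhibition of growth.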 The source made the active and inactive calls. Cut-off read from the data, not from the text of the source: active = GI50 up to about 1.1 µM and inactive = higher.

What was measured:
Test in all cases: NCI anticancer screen, dose series, 48 h
UACC-62 = test system: UACC-62
DMS-273 = test system: DMS-273
SF-268 = test system: SF-268
IGROV-1 = test system: IGROV-1
HL-60 = test system: HL-60
OVCAR-4 = test system: OVCAR-4
RPMI-8226 = test system: RPMI-8226
TK-10 = test system: TK-10
SF-539 = test system: SF-539
M14 = test system: M14
HCC 2998 = test system: HCC 2998
SR = test system: SR
SK-MEL-28 = test system: SK-MEL-28
Hs-578T = test system: Hs-578T
MDA-MB-231 = test system: MDA-MB-231
T47D = test system: T47D
NCI-H226 = test system: NCI-H226
NCI/ADR-RES = test system: NCI/ADR-RES
NCI-H522 = test system: NCI-H522
XF498 = test system: XF498

With `O=C(NNC(=S)Nc1ccccc1)c1nsc2ccccc12` the GI50 (UACC-62) was 26.2 µM (inactive), the GI50 (DMS-273) was 17.3 µM (inactive) and the GI50 (SF-268) was 30.1 µM (inactive). The GI50 (IGROV-1) was 31 µM (inactive), the GI50 (HL-60) was 20.1 µM (inactive) and the GI50 (OVCAR-4) was 96.8 µM (inactive). For the same molecule, the GI50 (RPMI-8226) was 16 µM (inactive), the GI50 (TK-10) was 41.3 µM (inactive) and the GI50 (SF-539) was 31.3 µM (inactive). For the same molecule, the GI50 (M14) was 14.3 µM (inactive), the GI50 (HCC 2998) was 55 µM (inactive) and the GI50 (SR) was 22 µM (inactive). For the same molecule, the GI50 (SK-MEL-28) was 34.6 µM (inactive).

For `C=CCOC1OC(CS(=O)(=O)O)C(O)C(O)C1O` (centres undefined), the GI50 (UACC-62) was > 100 µM (inactive), the GI50 (Hs-578T) was > 100 µM (inactive) and the GI50 (MDA-MB-231) was > 100 µM (inactive). For the same molecule, the GI50 (IGROV-1) was > 100 µM (inactive), the GI50 (HL-60) was > 100 µM (inactive) and the GI50 (OVCAR-4) was > 100 µM (inactive). The GI50 (RPMI-8226) was > 100 µM (inactive), the GI50 (TK-10) was > 100 µM (inactive) and the GI50 (T47D) was > 100 µM (inactive). The GI50 (M14) was > 100 µM (inactive), the GI50 (HCC 2998) was > 100 µM (inactive) and the GI50 (NCI-H226) was > 100 µM (inactive). For the same molecule, the GI50 (SR) was > 100 µM (inactive), the GI50 (NCI/ADR-RES) was > 100 µM (inactive) and the GI50 (SK-MEL-28) was > 100 µM (inactive).

For `CSC1SCC2C(=O)N(C)C(C(C)C)C(=O)OCC(NC(=O)c3cnc4ccccc4n3)C(=O)NC(C)C(=O)N(C)C1C(=O)N(C)C(C(C)C)C(=O)OCC(NC(=O)c1cnc3ccccc3n1)C(=O)NC(C)C(=O)N2C` (centres undefined), the GI50 (DMS-273) was 0.0075 µM (active), the GI50 (SF-268) was 0.0075 µM (active) and the GI50 (Hs-578T) was 0.000374 µM (active). The GI50 (MDA-MB-231) was 0.000906 µM (active), the GI50 (IGROV-1) was 0.0075 µM (active) and the GI50 (HL-60) was 0.0193 µM (active). For the same molecule, the GI50 (OVCAR-4) was 0.0075 µM (active), the GI50 (RPMI-8226) was 0.0075 µM (active) and the GI50 (TK-10) was 0.00152 µM (active). For the same molecule, the GI50 (T47D) was 0.000391 µM (active), the GI50 (M14) was 0.000828 µM (active) and the GI50 (HCC 2998) was 0.0075 µM (active). The GI50 (NCI-H226) was 0.0075 µM (active), the GI50 (SR) was 0.000171 µM (active) and the GI50 (NCI/ADR-RES) was 0.0454 µM (active).

For `CN(C)C(=O)Oc1c(Br)cc(Br)cc1C(=O)OCc1ccccc1`, the GI50 (UACC-62) was 15.7 µM (inactive), the GI50 (DMS-273) was 17.3 µM (inactive) and the GI50 (SF-268) was 35.6 µM (inactive). For the same molecule, the GI50 (NCI-H522) was 34.8 µM (inactive), the GI50 (IGROV-1) was 28.6 µM (inactive) and the GI50 (HL-60) was 21.4 µM (inactive). For the same molecule, the GI50 (OVCAR-4) was 33 µM (inactive), the GI50 (RPMI-8226) was 19.5 µM (inactive) and the GI50 (SF-539) was 26.6 µM (inactive). For the same molecule, the GI50 (XF498) was 19.3 µM (inactive), the GI50 (HCC 2998) was 36.1 µM (inactive) and the GI50 (NCI-H226) was 28.7 µM (inactive). For the same molecule, the GI50 (NCI/ADR-RES) was 18.5 µM (inactive) and the GI50 (SK-MEL-28) was 40.2 µM (inactive).

For `CCN(CC)/[N+]([O-])=N/O`, the GI50 (UACC-62) was > 100 µM (inactive), the GI50 (DMS-273) was > 100 µM (inactive) and the GI50 (SF-268) was > 100 µM (inactive). The GI50 (NCI-H522) was > 100 µM (inactive), the GI50 (IGROV-1) was > 100 µM (inactive) and the GI50 (HL-60) was > 100 µM (inactive). The GI50 (TK-10) was > 100 µM (inactive), the GI50 (SF-539) was > 100 µM (inactive) and the GI50 (XF498) was 18.9 µM (inactive). For the same molecule, the GI50 (M14) was > 100 µM (inactive), the GI50 (HCC 2998) was > 100 µM (inactive) and the GI50 (NCI-H226) was > 100 µM (inactive). For the same molecule, the GI50 (SR) was > 100 µM (inactive) and the GI50 (SK-MEL-28) was > 100 µM (inactive).

With `O=C(CCCn1cnc([N+](=O)[O-])n1)NCCn1ccnc1[N+](=O)[O-]` the GI50 (UACC-62) was > 100 µM (inactive), the GI50 (SF-268) was > 100 µM (inactive) and the GI50 (Hs-578T) was > 100 µM (inactive). The GI50 (NCI-H522) was > 100 µM (inactive), the GI50 (IGROV-1) was > 100 µM (inactive) and the GI50 (HL-60) was > 100 µM (inactive). For the same molecule, the GI50 (OVCAR-4) was > 100 µM (inactive), the GI50 (RPMI-8226) was > 100 µM (inactive) and the GI50 (TK-10) was > 100 µM (inactive). The GI50 (T47D) was > 100 µM (inactive), the GI50 (M14) was > 100 µM (inactive) and the GI50 (NCI-H226) was > 100 µM (inactive). The GI50 (SR) was > 100 µM (inactive) and the GI50 (SK-MEL-28) was > 100 µM (inactive).

For `COc1cc([C@@H]2c3cc4c(cc3[C@H](O)[C@H]3COC(=O)[C@H]23)OCO4)cc(OC)c1OC` [PODOFILOX], the GI50 (UACC-62) was < 0.005 µM (active), the GI50 (DMS-273) was 0.01 µM (active) and the GI50 (SF-268) was < 0.005 µM (active). For the same molecule, the GI50 (Hs-578T) was < 0.005 µM (active), the GI50 (MDA-MB-231) was < 0.005 µM (active) and the GI50 (HL-60) was < 0.005 µM (active). The GI50 (RPMI-8226) was < 0.005 µM (active), the GI50 (T47D) was 0.5 µM (active) and the GI50 (SF-539) was < 0.005 µM (active). The GI50 (XF498) was 0.0354 µM (active), the GI50 (NCI-H226) was < 0.005 µM (active) and the GI50 (SR) was < 0.005 µM (active). The GI50 (NCI/ADR-RES) was < 0.005 µM (active) and the GI50 (SK-MEL-28) was < 0.005 µM (active).
